Measurements: US20120029187A1, “HALOALKYLSULFONANILIDE DERIVATIVE” (Nissan Chemical Industries, Ltd., priority 2009, published 2012)

Tests used:
Type in all cases: in vivo
redroot pigweed [1] = experiment: Test Example 3: herbicidal effects in soil treatment; settings: dose 3.2 g/a
How it was run: (§1)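 Seeds were sown in sterilized diluvial soil and covered with about 1.5 cm of soil. Compounds, formulated as emulsifiable concentrates and diluted with water, were sprayed evenly over the soil surface at set doses in g/a. Herbicidal effect was scored on a rating scale three weeks later.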

common lambsquater [2] = experiment: as above; settings: dose 3.2 g/a
How it was run: as §1

large crabgrass [3] = experiment: as above; settings: dose 3.2 g/a
How it was run: as §1

common chickweed [4] = experiment: as above; settings: dose 3.2 g/a
How it was run: as §1

wild oat [5] = experiment: as above; settings: dose 3.2 g/a
How it was run: as §1

Italian ryegrass [6] = experiment: as above; settings: dose 3.2 g/a
How it was run: as §1

velvetleaf [7] = experiment: as above; settings: dose 3.2 g/a
How it was run: as §1

giant foxtail [8] = experiment: as above; settings: dose 3.2 g/a
How it was run: as §1

common ragweed [9] = experiment: as above; settings: dose 3.2 g/a
How it was run: as §1

posumbu knotweed [10] = experiment: as above; settings: dose 3.2 g/a
How it was run: as §1

beadstraw [11] = experiment: as above; settings: dose 3.2 g/a
How it was run: as §1

barnyardgrass [12] = experiment: as above; settings: dose 3.2 g/a
How it was run: as §1

water foxtail [13] = experiment: as above; settings: dose 3.2 g/a
How it was run: as §1

transplanted rice = experiment: Test Example 1: preemergence treatment under submerged conditions, effect on crop; settings: dose 2.52 g/a
How it was run: (§2)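 Alluvial soil flooded to 4 cm depth; barnyardgrass, bulrush and ducksalad sown and 2.5-leaf rice seedlings transplanted. Same day, water-diluted emulsifiable concentrates applied to the water surface at set doses (g/a). Kept at 25–30 °C in greenhouse; effects scored 0–5 by mortality after three weeks.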

bulrush [14] = experiment: Test Example 2: herbicidal effects during the vegetation period under submerged conditions; settings: treatment during the vegetation period under submerged conditions; dose 2.52 g/a
How it was run: (§3)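 Barnyardgrass, bulrush and ducksalad were co-sown in alluvial soil flooded to 4 cm and grown in a greenhouse at 25 to 30° C. At the 1- or 2-leaf stage, water-diluted emulsifiable concentrates went onto the water surface at set doses (g/a). Herbicidal effect was scored three weeks later on a graded scale.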

barnyardgrass [15] = experiment: as above; settings: treatment during the vegetation period under submerged conditions; dose 2.52 g/a
How it was run: as §3

ducksalad [16] = experiment: as above; settings: treatment during the vegetation period under submerged conditions; dose 2.52 g/a
How it was run: as §3

redroot pigweed [17] = experiment: Test Example 4: herbicidal effect in foliage treatment; settings: dose 3.2 g/a
How it was run: (§4)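 Weeds and crops sown in sterilized diluvial soil under ~1.5 cm cover and grown in greenhouse at 25 to 30° C. At 14 days, water-diluted emulsifiable concentrate sprayed onto foliage at set doses (g/a); herbicidal effect scored on a rating scale three weeks after application.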

common lambsquater [18] = experiment: as above; settings: dose 3.2 g/a
How it was run: as §4

large crabgrass [19] = experiment: as above; settings: dose 3.2 g/a
How it was run: as §4

common chickweed [20] = experiment: as above; settings: dose 3.2 g/a
How it was run: as §4

wild oat [21] = experiment: as above; settings: dose 3.2 g/a
How it was run: as §4

Italian ryegrass [22] = experiment: as above; settings: dose 3.2 g/a
How it was run: as §4

velvetleaf [23] = experiment: as above; settings: dose 3.2 g/a
How it was run: as §4

giant foxtail [24] = experiment: as above; settings: dose 3.2 g/a
How it was run: as §4

common ragweed [25] = experiment: as above; settings: dose 3.2 g/a
How it was run: as §4

posumbu knotweed [26] = experiment: as above; settings: dose 3.2 g/a
How it was run: as §4

beadstraw [27] = experiment: as above; settings: dose 3.2 g/a
How it was run: as §4

barnyardgrass [28] = experiment: as above; settings: dose 3.2 g/a
How it was run: as §4

water foxtail [29] = experiment: as above; settings: dose 3.2 g/a
How it was run: as §4

bulrush [30] = experiment: Test Example 1: herbicidal effects in preemergence treatment under submerged conditions; settings: dose 2.52 g/a
How it was run: as §2

barnyardgrass [31] = experiment: as above; settings: dose 2.52 g/a
How it was run: as §2

ducksalad [32] = experiment: as above; settings: dose 2.52 g/a
How it was run: as §2

[33] = three weeks after the application

## CC1(C)OCN(Cc2ccccc2NS(=O)(=O)C(F)(F)F)C(=O)C1F (stereo not drawn) [II-32]
Redroot pigweed [1]
  K: redroot pigweed, herbicidal effect (evaluation scale 0-5): 3 (mortality of at least 40% and less than 70%)
Common lambsquater [2]
  L: common lambsquater, herbicidal effect (evaluation scale 0-5): 0 (mortality of less than 5% (almost ineffective))
Large crabgrass [3]
  D: large crabgrass, herbicidal effect (evaluation scale 0-5): 5 (mortality of 90% or above (nearly complete death))
Common chickweed [4]
  N: common chickweed, herbicidal effect (evaluation scale 0-5): 3 (mortality of at least 40% and less than 70%)
Wild oat [5]
  F: wild oat, herbicidal effect (evaluation scale 0-5): 0 (mortality of less than 5% (almost ineffective))
Italian ryegrass [6]
  H: Italian ryegrass, herbicidal effect (evaluation scale 0-5): 5 (mortality of 90% or above (nearly complete death))
Velvetleaf [7]
  I: velvetleaf, herbicidal effect (evaluation scale 0-5): 3 (mortality of at least 40% and less than 70%)
Giant foxtail [8]
  E: giant foxtail, herbicidal effect (evaluation scale 0-5): 4 (mortality of at least 70% and less than 90%)
Common ragweed [9]
  J: common ragweed, herbicidal effect (evaluation scale 0-5): 5 (mortality of 90% or above (nearly complete death))
Posumbu knotweed [10]
  M: posumbu knotweed, herbicidal effect (evaluation scale 0-5): 4 (mortality of at least 70% and less than 90%)
Beadstraw [11]
  O: beadstraw, herbicidal effect (evaluation scale 0-5): 3 (mortality of at least 40% and less than 70%)
Barnyardgrass [12]
  A: barnyardgrass, herbicidal effect (evaluation scale 0-5): 5 (mortality of 90% or above (nearly complete death))
Water foxtail [13]
  G: water foxtail, herbicidal effect (evaluation scale 0-5): 5 (mortality of 90% or above (nearly complete death))
Transplanted rice
  a: transplanted rice, effect on crop (evaluation scale 0-5): 0 (mortality of less than 5% (almost ineffective))
Bulrush [14]
  B: bulrush, herbicidal effect (evaluation scale 0-5): 5 (mortality of 90% or above (nearly complete death))
Barnyardgrass [15]
  A: barnyardgrass, herbicidal effect (evaluation scale 0-5): 5 (mortality of 90% or above (nearly complete death))
Ducksalad [16]
  C: ducksalad, herbicidal effect (evaluation scale 0-5): 5 (mortality of 90% or above (nearly complete death))
Redroot pigweed [17]; three weeks after application
  K: redroot pigweed, herbicidal effect: 1 (mortality of at least 5% and less than 20%)
Common lambsquater [18]; three weeks after application
  L: common lambsquater, herbicidal effect: 2 (mortality of at least 20% and less than 40%)
Large crabgrass [19]; three weeks after application
  D: large crabgrass, herbicidal effect: 4 (mortality of at least 70% and less than 90%)
Common chickweed [20]; three weeks after application
  N: common chickweed, herbicidal effect: 3 (mortality of at least 40% and less than 70%)
Wild oat [21]; three weeks after application
  F: wild oat, herbicidal effect: 2 (mortality of at least 20% and less than 40%)
Italian ryegrass [22]; three weeks after application
  H: Italian ryegrass, herbicidal effect: 4 (mortality of at least 70% and less than 90%)
Velvetleaf [23]; three weeks after application
  I: velvetleaf, herbicidal effect: 4 (mortality of at least 70% and less than 90%)
Giant foxtail [24]; three weeks after application
  E: giant foxtail, herbicidal effect: 4 (mortality of at least 70% and less than 90%)
Common ragweed [25]; three weeks after application
  J: common ragweed, herbicidal effect: 3 (mortality of at least 40% and less than 70%)
Posumbu knotweed [26]; three weeks after application
  M: posumbu knotweed, herbicidal effect: 2 (mortality of at least 20% and less than 40%)
Beadstraw [27]; three weeks after application
  O: beadstraw, herbicidal effect: 4 (mortality of at least 70% and less than 90%)
Barnyardgrass [28]; three weeks after application
  A: barnyardgrass, herbicidal effect: 5 (mortality of 90% or above (nearly complete death))
Water foxtail [29]; three weeks after application
  G: water foxtail, herbicidal effect: 5 (mortality of 90% or above (nearly complete death))
Bulrush [30]
  B: bulrush, herbicidal effect (evaluation scale 0-5): 5 (mortality of 90% or above (nearly complete death))
Barnyardgrass [31]
  A: barnyardgrass, herbicidal effect (evaluation scale 0-5): 5 (mortality of 90% or above (nearly complete death))
Ducksalad [32]
  C: ducksalad, herbicidal effect (evaluation scale 0-5): 5 (mortality of 90% or above (nearly complete death))

## CCOC(=O)N(c1ccccc1CN1COCN(C)C1=O)S(=O)(=O)C(F)(F)F [IV-2]
Redroot pigweed [1]
  herbicidal effect, K: redroot pigweed: 0 (mortality of less than 5% (almost ineffective))
Common lambsquater [2]
  herbicidal effect, L: common lambsquater: 0 (mortality of less than 5% (almost ineffective))
Large crabgrass [3]
  herbicidal effect, D: large crabgrass: 5 (mortality of 90% or above (nearly complete death))
Common chickweed [4]
  herbicidal effect, N: common chickweed: 0 (mortality of less than 5% (almost ineffective))
Wild oat [5]
  herbicidal effect, F: wild oat: 0 (mortality of less than 5% (almost ineffective))
Italian ryegrass [6]
  herbicidal effect, H: Italian ryegrass: 2 (mortality of at least 20% and less than 40%)
Velvetleaf [7]
  herbicidal effect, I: velvetleaf: 2 (mortality of at least 20% and less than 40%)
Giant foxtail [8]
  herbicidal effect, E: giant foxtail: 4 (mortality of at least 70% and less than 90%)
Common ragweed [9]
  herbicidal effect, J: common ragweed: 0 (mortality of less than 5% (almost ineffective))
Posumbu knotweed [10]
  herbicidal effect, M: posumbu knotweed: 0 (mortality of less than 5% (almost ineffective))
Beadstraw [11]
  herbicidal effect, O: beadstraw: 0 (mortality of less than 5% (almost ineffective))
Barnyardgrass [12]
  herbicidal effect, A: barnyardgrass: 5 (mortality of 90% or above (nearly complete death))
Water foxtail [13]
  herbicidal effect, G: water foxtail: 5 (mortality of 90% or above (nearly complete death))
Transplanted rice
  a: transplanted rice, effect on crop (evaluation scale 0-5): 0 (mortality of less than 5% (almost ineffective))
Bulrush [14]
  B: bulrush, herbicidal effect (evaluation scale 0-5): 5 (mortality of 90% or above (nearly complete death))
Barnyardgrass [15]
  A: barnyardgrass, herbicidal effect (evaluation scale 0-5): 5 (mortality of 90% or above (nearly complete death))
Ducksalad [16]
  C: ducksalad, herbicidal effect (evaluation scale 0-5): 4 (mortality of at least 70% and less than 90%)
Redroot pigweed [17]; [33]
  K: redroot pigweed, herbicidal effect: 0 (mortality of less than 5% (almost ineffective))
Common lambsquater [18]; [33]
  L: common lambsquater, herbicidal effect: 0 (mortality of less than 5% (almost ineffective))
Large crabgrass [19]; [33]
  D: large crabgrass, herbicidal effect: 5 (mortality of 90% or above (nearly complete death))
Common chickweed [20]; [33]
  N: common chickweed, herbicidal effect: 0 (mortality of less than 5% (almost ineffective))
Wild oat [21]; [33]
  F: wild oat, herbicidal effect: 0 (mortality of less than 5% (almost ineffective))
Italian ryegrass [22]; [33]
  H: Italian ryegrass, herbicidal effect: 0 (mortality of less than 5% (almost ineffective))
Velvetleaf [23]; [33]
  I: velvetleaf, herbicidal effect: 3 (mortality of at least 40% and less than 70%)
Giant foxtail [24]; [33]
  E: giant foxtail, herbicidal effect: 3 (mortality of at least 40% and less than 70%)
Common ragweed [25]; [33]
  J: common ragweed, herbicidal effect: 1 (mortality of at least 5% and less than 20%)
Posumbu knotweed [26]; [33]
  M: posumbu knotweed, herbicidal effect: 0 (mortality of less than 5% (almost ineffective))
Beadstraw [27]; [33]
  O: beadstraw, herbicidal effect: 0 (mortality of less than 5% (almost ineffective))
Barnyardgrass [28]; [33]
  A: barnyardgrass, herbicidal effect: 4 (mortality of at least 70% and less than 90%)
Water foxtail [29]; [33]
  G: water foxtail, herbicidal effect: 5 (mortality of 90% or above (nearly complete death))
Bulrush [30]
  B: bulrush, herbicidal effect (evaluation scale 0-5): 5 (mortality of 90% or above (nearly complete death))
Barnyardgrass [31]
  A: barnyardgrass, herbicidal effect (evaluation scale 0-5): 5 (mortality of 90% or above (nearly complete death))
Ducksalad [32]
  C: ducksalad, herbicidal effect (evaluation scale 0-5): 3 (mortality of at least 40% and less than 70%)
